Data: patent US7919274B2, “Light-emitting fusion proteins and diagnostic and therapeutic methods therefor” (Dana-Farber Cancer Institute, Inc., priority 2001, dated 2011)
Values belong to the substance of their own block, whether it stands above or below them. Ends that are not written are not given here.

What was measured:
[1] = tested on: TETo-driven luciferase reporter plasmid (pUHC13-3); assay: TETr-fusion transcriptional luciferase reporter gene assay in U2OS cells; assay type: cell-based, human; conditions: pUHC13-3 reporter
Description: (A) is a schematic of reporter plasmid (pUHC 13-3) that contains seven TETracycline operator sequences (TETo) upstream of a minimal CMV promoter that includes a TATA box. (B, C) show U2OS cells were cotransfected with plasmids encoding the indicated TETr fusion proteins along with the pUHC 13-3 reporter plasmid and a plasmid encoding β-galactosidase. Numbers shown at the bottom of the graph indicate the amount of TETr plasmid (in μg). 48 hours later luciferase activity, normalized for β-galactosidase, was determined. Fold repression is the corrected luciferase value for TETr alone divided by the corrected luciferase values for the indicated TETr fusion proteins. Fold activation represents the corrected luciferase values for the indicated TETr fusion proteins divided by the corrected luciferase value for TETr alone. […]
For TETr-fusion transcriptional assay, subconfluent U2OS cells were transiently transfected in 6-well plates in duplicate with 1 μg of […], 1 μg of pUHC13-3 reporter plasmid, and 3 μg of the indicated plasmids encoding TETr-fusion proteins. […] 48 hours after transfection luciferase activity and β-galactosidase activity was determined as described previously (Qin, 1995).

cdk2 = molecular target: T1, cdk2 (Homo sapiens, UniProt P24941); assay: GST pull-down assay with GST-cdk2; assay type: binding; conditions: 35S-labeled in vitro translates
T1 construct: made in house
Description: (§1) FIG. 11 illustrates that cyclin box is required for transcriptional repression by DNA bound cyclin A. (A) U2OS cells were cotransfected with plasmids encoding the indicated TETr-cyclin A variants along with the pUHC 13-3 reporter plasmid and a plasmid encoding β-galactosidase. Cell extracts were prepared and luciferase activity, corrected for β-galactosidase activity, was expressed as fold repression relative to cells producing TETr alone. (B) The indicated TETr-cyclin A variants were translated in vitro in the presence of ^35S-methionine and incubated with GST-cdk2 and glutathione Sepharose. […] In parallel, 20% of the input proteins were resolved by SDS-polyacrylamide gel electrophoresis and detected by autoradiography. (c) pRB defective SAOS-2 cells transfected so as to produce HA-tagged pRB along with the indicated TETr-cyclin A variants were lysed and immunoblotted with anti-HA antibody.
Glutathione S-transferase pull-down assays were performed basically as described previously (Kaelin et al., 1991). Binding reactions contained 10 μl of ^35S-radiolabelled in vitro translates made with a TNT kit (Promega) and approximately 1 μg of the indicated GST fusion protein in 1 ml of NETN (20 mM Tris [pH 8], 100 mM NaCl, 1 mM EDTA, 0.5% Nonidet P-40). Following 1 hour incubation at 4° C. with rocking, the Sepharose was washed 5 times with NETN. […]

pRB = pRB phosphorylation in pRB-defective SAOS-2 cells; assay type: cell-based, human; conditions: cointroduced with HA-tagged pRB into SAOS-2 cells
Description: FIG. 8 illustrates the production of TETr-cyclins A and E. (A) is a schematic of TETr-cyclin fusion protein. […] The % of transfected cells in G1 and S phase was determined by fluororescence activated cell sorting (FACS).
as §1

[2] = In vitro degradation assay with xenopus egg extracts; assay type: biochemical; conditions: room temperature
Description: Xenopus egg extracts were made as is well known in the art and stored frozen until use. Degradation reactions contained 8 μl of egg extract, 0.1 μl of 100 mg/ml cyclohexamide, 0.25 μl of energy regeneration mix, 0.25 μl of bovine ubiquitin, and 0.4 μl of ^35S-radiolabeled HIF and were carried out at room temperature. At the indicated timepoints 1 μl aliquots were removed and placed in sample buffer. Samples were resolved on 5-15% gradient gels and analyzed by autoradiography. Biotinylated HIF (556-575) peptides were incubated with rabbit reticulocyte lysate, washed, eluted with free biotin, and analyzed by mass spectrometry. 1 μg of HPLC-purified peptide was bound to 30 μl monomeric avidin Sepharose and incubated with 100 μl of rabbit reticulocyte lysate at room temperature for 1 hour with tumbling. Following brief centrifugation the reticulocyte lysate was removed, fresh reticulocyte lysate was added, and the cycle was repeated 6 times. The Sepharose was then washed 4 times with NETN and once with PBS. The modified peptide was eluted in 50 μl of 20 mM ammonium acetate [pH 7.0], 2 mM biotin. […] This peak was not detectable prior to incubation with reticulocyte lysate and was not detected in the corresponding reticulocyte-treated Leu562Ala and Pro564Ala peptides (FIG. 6A). […] Following visualization of standards with ninhydrin radiolabeled proline was detected by autoradiography. […]

COS7 cells = assay: Anti-HA immunoblot of transiently transfected COS7 cells; assay type: cell-based
Description: (A) depicts in vitro ubiquitination of ^35S-labeled wild-type, Leu562A, and Pro564A Gal4-HA-HIF1α (530-652) in the presence of S100 extracts prepared from pVHL-defective renal carcinoma cells stably transfected to produce wild-type pVHL or with empty vector. […] (C) is an anti-HA immunoblot analysis of COS7 cells transiently transfected with 1.5 or 3.5 μg of plasmids encoding wild-type or P564A HA-HIF1α in the absence or presence of desferoxamine.

HA-pVHL bound HIF = molecular target: T2, HA-pVHL bound HIF (Homo sapiens, UniProt P40337); assay: Peptide elution of HIF coimmunoprecipitated with HA-pVHL from ts20 cells; assay type: binding; conditions: 7 μg peptide in 65 μl PBS
T2 construct: expressed in transfected cells; host or cells: ts20 cells stably transfected with pIRES-HA-VHL, G418-selected
T2 sequence (P40337 whole entry): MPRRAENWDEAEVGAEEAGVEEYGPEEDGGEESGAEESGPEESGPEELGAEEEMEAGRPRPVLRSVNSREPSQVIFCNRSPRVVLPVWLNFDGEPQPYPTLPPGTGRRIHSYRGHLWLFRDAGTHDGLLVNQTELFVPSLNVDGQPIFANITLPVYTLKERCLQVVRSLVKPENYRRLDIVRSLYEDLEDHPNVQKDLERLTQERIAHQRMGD
T2 sequence (P62869 whole entry partner): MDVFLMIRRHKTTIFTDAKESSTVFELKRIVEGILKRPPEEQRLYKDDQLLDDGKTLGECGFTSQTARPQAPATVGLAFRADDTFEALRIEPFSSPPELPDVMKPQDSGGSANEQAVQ
T2 sequence (P83940 whole entry partner): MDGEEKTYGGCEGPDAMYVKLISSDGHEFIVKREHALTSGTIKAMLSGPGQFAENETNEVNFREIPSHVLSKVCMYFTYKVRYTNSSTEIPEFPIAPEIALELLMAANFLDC
Description: Individual G418-resistant colonies were isolated using cloning cylinders and expanded. Cells producing HA-VHL or HA-VHL (Y98H) were identified by anti-HA immunoblot analysis. […] For the tests shown in FIG. 5C, ts20 cells were grown at the restrictive or permissive temperature for 14 hours, methionine-starved for 90 min, and then grown in the methionine-free media supplemented with ^35S-met ([…]) for 90 min.

[3] = molecular target: T3, pVHL (GST-VHL, elongin B, elongin C complex) (Homo sapiens, UniProt P40337); assay: VBC-GST pulldown of 35S-labeled in vitro translated proteins; assay type: binding
T3 construct: made in house; host or cells: E. coli
T3 sequence (P40337 whole entry): as the sequence (P40337 whole entry) above
T3 sequence (Q15370 whole entry partner): as the sequence (P62869 whole entry partner) above, with E40D, R89C, G110S counted along it
T3 sequence (Q15369 whole entry partner): as the sequence (P83940 whole entry partner) above

[4] = Luciferase activity of in vitro translate; assay type: biochemical; conditions: versus wild-type luciferase
HeLa cells = assay: Luciferase activity in transiently transfected HeLa cells; assay type: cell-based
Description: To begin to ask whether the ODD-Luc was oxygen sensitive in cells, transient transfection assays were performed. In the first set of experiments, 100 mm tissue culture plates were seeded with 8×10^5 HeLa cells per plate. Eighteen hours later the cells were transiently transfected, using lipofectamine (Gibco), with the pcDNA3 plasmids encoding ODD-Luc or wild-type Luc along with an internal control plasmid encoding Renilla luciferase. Twenty-four hours after transfection the cells were split into 6 well plates and allowed to adhere and grow for 8-12 hours. At this point the hypoxia mimetics desferrioxamine (DFO) or cobalt chloride (CoCl2) were added directly to the media at final concentrations of 500 μM and 200 μM respectively, in duplicate wells. In addition, some wells were not treated so as to serve as controls. 12 hours after treatment with DFO and CoCl2 the cells were lysed with Passive Lysis Buffer (Promega), rocked at room temperature for 20 minutes, and assayed for Firefly and Renilla Luciferase according to the manufacturers instructions. Results were obtained in duplicate and averaged. (FIG. 17). Luciferase activity in HeLa cells containing pcDNA3 plasmids encoding wild-type Luc are presented in the first three bars from the left; while luciferase activity in HeLa cells containing pcDNA3 plasmids encoding ODD-Luc are presented in the fourth through sixth bars from the left.

[5] = tested on: Hela cells xenograft tumors; assay: Imaging of ODD-Luc in xenograft tumors in nude mice; assay type: in vivo; conditions: subcutaneous Hela tumors, versus Luc sites
Description: Polyclonal Hela cells stably transfected with ODD-Luc and Luc were generated. The clones were suspended in PBS and counted. 10^6 cells per injection site were administered subcutaneously in duplicate into the flanks of nude mice (FIG. 18). Upon growth of palpable tumors (approximately 3-4 days) the mice were given intraperitoneal injections of phenobarbital for anesthesia, injected with a weight-adjusted dose of luciferin, and whole body imaged with a Xenogen Camera. To ensure that the difference in luciferase activity was not simply a function of tumor size alone, bidimensional tumor measurements were taken and were approximately equal.

Substance: Cyclin A (1-310): cyclin A fragment 1-310 fused to TETr
transcriptional effect on TETo-driven luciferase reporter [1]: repressed transcription
binding to cdk2 (cdk2): does not bind to cdk2
pRB phosphorylation (pRB): cannot direct the phosphorylation of pRB

Substance: HIF1α Leu562Ala: HIF1α with Leu562Ala mutation
stability relative to wild-type HIF1α [2]: far more stable

Substance: HIF1α Pro564Ala: HIF1α with Proline 564 converted to alanine
stability relative to wild-type HIF1α [2]: far more stable
sensitivity to the hypoxia-mimetic desferoxamine (COS7 cells): insensitive

elution of HIF bound to HA-pVHL (HA-pVHL bound HIF): not eluted
Substance: HIF (556-575) Pro564Ala peptide: HIF (556-575) peptide with Pro564Ala substitution (DLDLEMLAAYIPMDDDFQLR)

binding of pVHL (GST-VBC pulldown) ([3]; translated in vitro in rabbit reticulocyte lysate): bound
binding of pVHL (GST-VBC pulldown) ([3]; wheat germ produced): did not bind
luciferase activity in vitro [4]: comparable to wild-type luciferase
Substance: ODD-Luc: Firefly luciferase fused in-frame to HIF1α amino acids 555-575 (ODD) (TDLDLEMLAPYIPMDDDFQLR; also: fused to firefly luciferase (not shown))
induced luciferase levels versus wild-type luciferase (HeLa cells; after addition of hypoxia-mimetics): comparable
luciferase values relative to wild-type Luc (HeLa cells; untreated HeLa cells grown in the presence of oxygen): approximately 30%
luciferase signal at injection sites (whole body imaging) [5]: attenuated luciferase signal
